Assay [1] deals with EBC-1 lung cancer cell line. Briefly: High-throughput screening, CellTiter-Glo cell viability assay at 100 nM. Type of assay: cell-based, human. The conditions noted are these: Homo sapiens, EBC-1, HTS, compounds at 100 nM, 72 h, read-out: cytotoxicity expressed in IC50, EBC-1 (results of High throughput screening). How it is done:
(§1) EBC-1 (obtained from JRCB, https://cellbank.nibiohn.go.jp/english/) and H2228 (obtained from ATCC https://www.lgcstandards-atcc.org/) cell lines were maintained according to the instructions provided by JRCB and ATCC in a 5% CO2 humidified incubator maintained at 37° C. temperature. Effect of compounds on cell viability was measured via CellTiter-Glo® luminescent cell viability assay (Promega, Madison, WI, USA). Cells were plated at 1000 cells/well onto a flat-bottomed, white 96 well plate (BRANDplates, cat. no.: 781965). After 24 h, cells were treated for 72 h with the compounds at 100 nM concentration. After the treatment, medium was removed and CellTiter-Glo® reagent was added. Untreated cells were used as control. The luminescence signal was recorded using a microplate reader (BioTek Synergy 2 Multi-Mode Reader, BioTek, Winooski, VT, USA). Cell viability data (% of untreated control cells) was evaluated with Microsoft Excel.

In assay [2] the test system is H2228 lung cancer cell line. Described as above. Type of assay: cell-based, human. The settings on record: Homo sapiens, NCI-H2228, HTS, compounds at 100 nM, 72 h, read-out: cytotoxicity expressed in IC50, H2228 (results of High throughput screening). How it is done: as §1

Structures are written as SMILES. Where only a bound is given, the exact number is not on record here.

As for `Nc1ccc(CN2CCC3=C(C2)C(=O)N(CC2CCNCC2)C2=NCCN23)cc1` [I/93], the IC50 in assay [1] and in assay [2] was > 100 nM throughout.

Take `O=C1C2=C(CCN(Cc3cc(C(F)(F)F)cc(C(F)(F)F)c3)C2)N2CCN=C2N1Cc1ccc(C(F)(F)F)c(F)c1` [I/22]: the IC50 in assay [1] and in assay [2] was > 100 nM throughout.

In the case of `O=C1C2=C(CCN(Cc3cc(C(F)(F)F)cc(C(F)(F)F)c3)C2)N2CCN=C2N1Cc1ccc(C(F)(F)F)cc1` [I/21], the IC50 in assay [1] and in assay [2] was > 100 nM throughout.

Turning to `COCCOc1cc2ncnc(Nc3cccc(-c4cn(-c5ccc(CN6C(=O)C7=C(CCN(Cc8ccccc8)C7)N7CCN=C67)cc5)nn4)c3)c2cc1OCCOC` [I/123], the IC50 in assay [1] and in assay [2] was > 100 nM in each case.

Regarding `O=C1C2=C(CCN(Cc3ccc(F)c(F)c3F)C2)N2CCN=C2N1Cc1ccc(F)cc1` [I/34], the IC50 in assay [1] and in assay [2] was > 100 nM throughout.

In the case of `[N-]=[N+]=Nc1ccc(CN2CCC3=C(C2)C(=O)N(CC2CNC2)C2=NCCN23)cc1` [I/118], the IC50 in assay [1] and in assay [2] was > 100 nM throughout.

Regarding `O=C1C2=C(CCN(Cc3ccccc3)C2)N2CCN=C2N1Cc1cccc(I)c1` [I/56], the IC50 in assay [1] and in assay [2] was > 100 nM throughout.

In the case of `O=C1C2=C(CCN(Cc3cc(C(F)(F)F)cc(C(F)(F)F)c3)C2)N2CCN=C2N1Cc1ccc(I)cc1` [I/16], the IC50 in assay [1] and in assay [2] was > 100 nM each time.

On to `COc1cc(CN2C(=O)C3=C(CCN(Cc4ccc(N=[N+]=[N-])cc4)C3)N3CCN=C23)cc(OC)c1OC` [I/116], for which the IC50 in assay [1] and in assay [2] was > 100 nM throughout.

With `Cc1ccccc1CN1C(=O)C2=C(CCN(Cc3ccc(F)cc3C(F)(F)F)C2)N2CCN=C12` [I/12], the IC50 in assay [1] and in assay [2] was > 100 nM in each case.

In the case of `O=C1C2=C(CCN(Cc3cccc(C(F)(F)F)c3)C2)N2CCN=C2N1Cc1ccc(I)cc1` [I/15A], the IC50 in assay [1] and in assay [2] was > 100 nM in each case.

Consider `O=C1C2=C(CCN(Cc3ccccc3)C2)N2CCN=C2N1CC1CCNCC1` [I/96], for which the IC50 in assay [1] and in assay [2] was > 100 nM each time.

Turning to `COc1cc(CN2C(=O)C3=C(CCN(Cc4ccccc4)C3)N3CCN=C23)cc(OC)c1OC` [I/51], the IC50 in assay [1] and in assay [2] was > 100 nM throughout.

`COCCOc1cc2ncnc(Nc3cccc(-c4cn(-c5ccc(CN6CCC7=C(C6)C(=O)N(Cc6ccccc6C)C6=NCCN67)cc5)nn4)c3)c2cc1OCCOC` [I/122]: the IC50 in assay [1] and in assay [2] was > 100 nM in each case.

In the case of `[N-]=[N+]=Nc1ccc(CN2CCC3=C(C2)C(=O)N(Cc2ccc(N=[N+]=[N-])cc2)C2=NCCN23)cc1` [I/117], the IC50 in assay [1] and in assay [2] was > 100 nM each time.

Consider `O=C1C2=C(CCN(Cc3cccc(F)c3)C2)N2CCN=C2N1Cc1ccc([N+](=O)[O-])cc1F` [I/49], for which the IC50 in assay [1] and in assay [2] was < 100 nM in each case.

`O=C1C2=C(CCN(CC3CCCN3)C2)N2CCN=C2N1Cc1ccc(F)cc1` (stereo not drawn) [I/100]: the IC50 in assay [1] and in assay [2] was > 100 nM throughout.

As for `NCc1ccc(CN2C(=O)C3=C(CCN(Cc4ccccc4)C3)N3CCN=C23)cc1` [I/62], the IC50 in assay [1] and in assay [2] was > 100 nM each time.

In the case of `[N-]=[N+]=Nc1ccc(CN2CCC3=C(C2)C(=O)N(CC2CCNCC2)C2=NCCN23)cc1` [I/119], the IC50 in assay [1] and in assay [2] was > 100 nM each time.

For `Nc1ccc(CN2C(=O)C3=C(CCN(Cc4cc(F)cc(F)c4)C3)N3CCN=C23)cc1` [I/88], the IC50 in assay [1] and in assay [2] was > 100 nM in each case.

`O=C1C2=C(CCN(Cc3ccccc3)C2)N2CCN=C2N1Cc1ccc(Br)cc1` [I/41]: the values for the IC50 in assay [1] and in assay [2] were > 100 nM and < 100 nM, respectively.

As for `O=C1C2=C(CCN(CC3CCNCC3)C2)N2CCN=C2N1Cc1ccc(F)cc1` [I/95], the IC50 in assay [1] and in assay [2] was > 100 nM each time.

Take `O=C1C2=C(CCN(CC3CCNC3)C2)N2CCN=C2N1Cc1ccc(F)cc1` (stereo not drawn) [I/98]: the IC50 in assay [1] and in assay [2] was > 100 nM each time.

`NCc1cccc(CN2CCC3=C(C2)C(=O)N(Cc2ccc(C(F)(F)F)cc2)C2=NCCN23)c1` [I/69]: the IC50 in assay [1] and in assay [2] was > 100 nM in each case.

Take `O=C1C2=C(CCN(Cc3cccc(F)c3)C2)N2CCN=C2N1Cc1ccc(Br)cc1` [I/4, reference compound]: the IC50 in assay [1] and in assay [2] was < 100 nM throughout.

On to `Nc1cccc(CN2CCC3=C(C2)C(=O)N(Cc2ccc(C(F)(F)F)cc2)C2=NCCN23)c1` [I/79], for which the IC50 in assay [1] and in assay [2] was > 100 nM each time.

In the case of `O=C1C2=C(CCN(Cc3cccc(C(F)(F)F)c3)C2)N2CCN=C2N1Cc1ccc(F)cc1` [I/32], the IC50 in assay [1] and in assay [2] was > 100 nM throughout.

`[N-]=[N+]=Nc1cccc(CN2C(=O)C3=C(CCN(Cc4cccc(F)c4)C3)N3CCN=C23)c1` [I/105]: the figures for the IC50 in assay [1] and in assay [2] were < 100 nM and ~100 nM, respectively.

On to `O=C1C2=C(CCN(Cc3cccc(C(F)(F)F)c3)C2)N2CCN=C2N1Cc1ccc(C(F)(F)F)c(F)c1` [I/33], for which the IC50 in assay [1] and in assay [2] was > 100 nM each time.

Turning to `Cc1ccccc1CN1C(=O)C2=C(CCN(CC3CCNCC3)C2)N2CCN=C12` [I/94], the IC50 in assay [1] and in assay [2] was > 100 nM throughout.

As for `[N-]=[N+]=Nc1ccc(CN2CCC3=C(C2)C(=O)N(Cc2ccc(C(F)(F)F)cc2)C2=NCCN23)cc1` [I/110], the IC50 in assay [1] and in assay [2] was > 100 nM throughout.

Consider `[N-]=[N+]=Nc1cccc(CN2C(=O)C3=C(CCN(Cc4ccccc4)C3)N3CCN=C23)c1` [I/102], for which the IC50 in assay [1] and in assay [2] was > 100 nM in each case.

For `Cc1ccccc1CN1C(=O)C2=C(CCN(Cc3cccc(N)c3)C2)N2CCN=C12` [I/77], the IC50 in assay [1] and in assay [2] was > 100 nM throughout.

Consider `[N-]=[N+]=Nc1ccc(CN2C(=O)C3=C(CCN(Cc4cccc(F)c4)C3)N3CCN=C23)cc1` [I/106], for which the IC50 (as a rule, the point on the concentration scale where inhibition reaches its midpoint) was ~100 nM in assay [1] and > 100 nM in assay [2].

Consider `COc1cc(CN2C(=O)C3=C(CCN(Cc4cccc(F)c4)C3)N3CCN=C23)cc(OC)c1OC` [I/57], for which the IC50 in assay [1] and in assay [2] was > 100 nM in each case.

For `O=C1C2=C(CCN(Cc3ccc(F)c(F)c3)C2)N2CCN=C2N1Cc1ccc(I)cc1` [I/17], the IC50 in assay [1] and in assay [2] was > 100 nM in each case.

Turning to `O=C1C2=C(CCN(Cc3ccc(F)c(F)c3F)C2)N2CCN=C2N1Cc1ccc(I)cc1` [I/18], the IC50 in assay [1] and in assay [2] was > 100 nM throughout.

In the case of `Cc1ccccc1CN1C(=O)C2=C(CCN(CC3CCNC3)C2)N2CCN=C12` (stereo not drawn) [I/97], the 50% inhibitory concentration (IC50) in assay [1] and in assay [2] was > 100 nM throughout.

Take `Nc1ccc(CN2CCC3=C(C2)C(=O)N(CC2CNC2)C2=NCCN23)cc1` [I/91]: the IC50 in assay [1] and in assay [2] was > 100 nM in each case.

In the case of `Cc1ccccc1CN1C(=O)C2=C(CCN(Cc3cccc(C(F)(F)F)c3)C2)N2CCN=C12` [I/13], the IC50 in assay [1] and in assay [2] was > 100 nM each time.

For `Cc1ccccc1CN1C(=O)C2=C(CCN(CC3CNC3)C2)N2CCN=C12` [I/92], the IC50 in assay [1] and in assay [2] was > 100 nM throughout.

`O=C1C2=C(CCN(Cc3ccc(F)c(F)c3)C2)N2CCN=C2N1Cc1ccc(F)cc1` [I/23]: the IC50 in assay [1] and in assay [2] was > 100 nM each time.
